Source: US20240027453A1, “METHOD FOR DETECTION AND QUANTITATIVE MONITORING OF INFECTIONS WITH HERPESVIRUSES” (The Trustees of Princeton University, priority 2020, published 2024)
Like-named read-outs stand apart in the source and are kept apart here.

Tested on: HCMV
Assay type: cell-based
Settings: for TRX2 (P16728) protein, numerical value of heatmap FIG. 6C / UL69 (P16749) protein, numerical value of heatmap FIG. 6C / UL70 (P17149) protein, numerical value of heatmap FIG. 6C / UL83 (P06725) protein, numerical value of heatmap FIG. 6C / UL132 (P69338) protein, numerical value of heatmap FIG. 6C / US15 (P09718) protein, numerical value of heatmap FIG. 6C / DUT (P16824) protein, numerical value of heatmap FIG. 6C / TRX1 (P16783) protein, numerical value of heatmap FIG. 6C / UL24 (P16760) protein, numerical value of heatmap FIG. 6C / UL40 (P16780) protein, numerical value of heatmap FIG. 6C / UL47 (P16784) protein, numerical value of heatmap FIG. 6C / sp|P16810|IR12_HCMVA (P16810) protein, numerical value of heatmap FIG. 6C / TRM3 (P16732) protein, numerical value of heatmap FIG. 6C / UL49 (P16786) protein, numerical value of heatmap FIG. 6C / sp|P16808|IR10_HCMVA (P16808) protein, numerical value of heatmap FIG. 6C: LL
Summary of the method: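 MRC5 human fibroblasts treated with compound or DMSO/PBS 12 h before infection with HSV-1 17+ or HCMV AD169 at MOI 3, drug re-added every 24 h. Viral proteins quantified by targeted PRM LC-MS/MS of tryptic peptides, summed 3-4 transitions, normalized to host loading-control peptides and scaled to each peptide's average across runs.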

Nc1ccn(C[C@@H](CO)OCP(=O)(O)O)c(=O)n1 [CDV, cidofovir]
UL80 (P16753) protein, numerical value of heatmap FIG. 6C (L, timepoint 96): 1.017 | UL82 (P06726) protein, numerical value of heatmap FIG. 6C (L, timepoint 96): 0.9932 | UL87 (P16730) protein, numerical value of heatmap FIG. 6C (L, timepoint 96): 0.3187 | UL88 (P16731) protein, numerical value of heatmap FIG. 6C (L, timepoint 96): 0.6827 | UL94 (P16800) protein, numerical value of heatmap FIG. 6C (L, timepoint 96): 0.8521 | UL99 (P13200) protein, numerical value of heatmap FIG. 6C (L, timepoint 96): 0.9111 | UL103 (P16734) protein, numerical value of heatmap FIG. 6C (L, timepoint 96): 0.899 | UL117 (P16770) protein, numerical value of heatmap FIG. 6C (L, timepoint 96): 0.5858 | gH (P12824) protein, numerical value of heatmap FIG. 6C (L, timepoint 96): 1.268 | gL (P16832) protein, numerical value of heatmap FIG. 6C (L, timepoint 96): 0.676 | gM (P16733) protein, numerical value of heatmap FIG. 6C (L, timepoint 96): 0.9966 | gN (P16795) protein, numerical value of heatmap FIG. 6C (L, timepoint 96): 0.6947 | sp|P16809|IR11_HCMVA (P16809) protein, numerical value of heatmap FIG. 6C (L, timepoint 96): 0.6961 | CVC1 (P16799) protein, numerical value of heatmap FIG. 6C (L, timepoint 120): 0.8775 | GO (P16750) protein, numerical value of heatmap FIG. 6C (L, timepoint 120): 0.821 | MCP (P16729) protein, numerical value of heatmap FIG. 6C (L, timepoint 120): 1.664 | SCP (Q7M6N6) protein, numerical value of heatmap FIG. 6C (L, timepoint 120): 1.225 | TRM2 (P16792) protein, numerical value of heatmap FIG. 6C (L, timepoint 120): 1.244 | UL22A (P16845) protein, numerical value of heatmap FIG. 6C (L, timepoint 120): 1.64 | UL25 (P16761) protein, numerical value of heatmap FIG. 6C (L, timepoint 120): 1.445 | UL29 (P16764) protein, numerical value of heatmap FIG. 6C (L, timepoint 120): 1.329 | UL30 (P16765) protein, numerical value of heatmap FIG. 6C (L, timepoint 120): 0.9125 | UL31 (P16848) protein, numerical value of heatmap FIG. 6C (L, timepoint 120): 1.094 | UL43 (P16781) protein, numerical value of heatmap FIG. 6C (L, timepoint 120): 1.1093 | UL52 (P16793) protein, numerical value of heatmap FIG. 6C (L, timepoint 120): 1.493 | UL76 (P16725) protein, numerical value of heatmap FIG. 6C (L, timepoint 120): 0.7396 | UL79 (P16752) protein, numerical value of heatmap FIG. 6C (L, timepoint 120): 0.8598 | UL80 (P16753) protein, numerical value of heatmap FIG. 6C (L, timepoint 120): 1.249 | UL82 (P06726) protein, numerical value of heatmap FIG. 6C (L, timepoint 120): 1.469 | UL87 (P16730) protein, numerical value of heatmap FIG. 6C (L, timepoint 120): 0.5716 | UL88 (P16731) protein, numerical value of heatmap FIG. 6C (L, timepoint 120): 0.8088 | UL94 (P16800) protein, numerical value of heatmap FIG. 6C (L, timepoint 120): 1.266 | UL99 (P13200) protein, numerical value of heatmap FIG. 6C (L, timepoint 120): 1.628 | UL103 (P16734) protein, numerical value of heatmap FIG. 6C (L, timepoint 120): 1.157 | UL117 (P16770) protein, numerical value of heatmap FIG. 6C (L, timepoint 120): 0.837 | gH (P12824) protein, numerical value of heatmap FIG. 6C (L, timepoint 120): 1.57 | gL (P16832) protein, numerical value of heatmap FIG. 6C (L, timepoint 120): 1.175 | gM (P16733) protein, numerical value of heatmap FIG. 6C (L, timepoint 120): 1.476 | gN (P16795) protein, numerical value of heatmap FIG. 6C (L, timepoint 120): 1.396 | sp|P16809|IR11_HCMVA (P16809) protein, numerical value of heatmap FIG. 6C (L, timepoint 120): 0.7634 | TRX2 (P16728) protein, numerical value of heatmap FIG. 6C (timepoint 24): 0.008754 | UL69 (P16749) protein, numerical value of heatmap FIG. 6C (timepoint 24): 0.1676 | UL70 (P17149) protein, numerical value of heatmap FIG. 6C (timepoint 24): 0.06824 | UL83 (P06725) protein, numerical value of heatmap FIG. 6C (timepoint 24): 0.03389 | UL132 (P69338) protein, numerical value of heatmap FIG. 6C (timepoint 24): 0.04048 | US15 (P09718) protein, numerical value of heatmap FIG. 6C (timepoint 24): 0.5879 | DUT (P16824) protein, numerical value of heatmap FIG. 6C (timepoint 48): 0.2905 | TRX1 (P16783) protein, numerical value of heatmap FIG. 6C (timepoint 48): 0.01277 | TRX2 (P16728) protein, numerical value of heatmap FIG. 6C (timepoint 48): 0.01952 | UL24 (P16760) protein, numerical value of heatmap FIG. 6C (timepoint 48): 0.107 | UL40 (P16780) protein, numerical value of heatmap FIG. 6C (timepoint 48): 0.3905 | UL47 (P16784) protein, numerical value of heatmap FIG. 6C (timepoint 48): 0.03052 | UL69 (P16749) protein, numerical value of heatmap FIG. 6C (timepoint 48): 0.2559 | UL70 (P17149) protein, numerical value of heatmap FIG. 6C (timepoint 48): 0.3143 | UL83 (P06725) protein, numerical value of heatmap FIG. 6C (timepoint 48): 0.03791 | UL132 (P69338) protein, numerical value of heatmap FIG. 6C (timepoint 48): 0.1131 | US15 (P09718) protein, numerical value of heatmap FIG. 6C (timepoint 48): 1.201 | sp|P16810|IR12_HCMVA (P16810) protein, numerical value of heatmap FIG. 6C (timepoint 48): 0.2103 | DUT (P16824) protein, numerical value of heatmap FIG. 6C (timepoint 72): 0.6275 | TRM3 (P16732) protein, numerical value of heatmap FIG. 6C (timepoint 72): 0.4913 | TRX1 (P16783) protein, numerical value of heatmap FIG. 6C (timepoint 72): 0.3363 | TRX2 (P16728) protein, numerical value of heatmap FIG. 6C (timepoint 72): 0.3619 | UL24 (P16760) protein, numerical value of heatmap FIG. 6C (timepoint 72): 0.3923 | UL40 (P16780) protein, numerical value of heatmap FIG. 6C (timepoint 72): 0.7811 | UL47 (P16784) protein, numerical value of heatmap FIG. 6C (timepoint 72): 0.4114 | UL49 (P16786) protein, numerical value of heatmap FIG. 6C (timepoint 72): 0.5948 | UL69 (P16749) protein, numerical value of heatmap FIG. 6C (timepoint 72): 0.6759 | UL70 (P17149) protein, numerical value of heatmap FIG. 6C (timepoint 72): 0.743 | UL83 (P06725) protein, numerical value of heatmap FIG. 6C (timepoint 72): 0.4276 | UL132 (P69338) protein, numerical value of heatmap FIG. 6C (timepoint 72): 0.4516 | US15 (P09718) protein, numerical value of heatmap FIG. 6C (timepoint 72): 0.8899 | sp|P16808|IR10_HCMVA (P16808) protein, numerical value of heatmap FIG. 6C (timepoint 72): 0.2743 | sp|P16810|IR12_HCMVA (P16810) protein, numerical value of heatmap FIG. 6C (timepoint 72): 0.6875 | DUT (P16824) protein, numerical value of heatmap FIG. 6C (timepoint 96): 0.7823 | TRM3 (P16732) protein, numerical value of heatmap FIG. 6C (timepoint 96): 0.7025 | TRX1 (P16783) protein, numerical value of heatmap FIG. 6C (timepoint 96): 0.8409 | TRX2 (P16728) protein, numerical value of heatmap FIG. 6C (timepoint 96): 0.8413 | UL24 (P16760) protein, numerical value of heatmap FIG. 6C (timepoint 96): 0.7085 | UL40 (P16780) protein, numerical value of heatmap FIG. 6C (timepoint 96): 0.7467 | UL47 (P16784) protein, numerical value of heatmap FIG. 6C (timepoint 96): 0.7604 | UL69 (P16749) protein, numerical value of heatmap FIG. 6C (timepoint 96): 0.9032 | UL70 (P17149) protein, numerical value of heatmap FIG. 6C (timepoint 96): 0.8327 | UL83 (P06725) protein, numerical value of heatmap FIG. 6C (timepoint 96): 1.027 | UL132 (P69338) protein, numerical value of heatmap FIG. 6C (timepoint 96): 0.6887 | US15 (P09718) protein, numerical value of heatmap FIG. 6C (timepoint 96): 0.6108 | sp|P16808|IR10_HCMVA (P16808) protein, numerical value of heatmap FIG. 6C (timepoint 96): 0.6859 | sp|P16810|IR12_HCMVA (P16810) protein, numerical value of heatmap FIG. 6C (timepoint 96): 0.5726 | DUT (P16824) protein, numerical value of heatmap FIG. 6C (timepoint 120): 1.034 | TRM3 (P16732) protein, numerical value of heatmap FIG. 6C (timepoint 120): 0.9855 | TRX1 (P16783) protein, numerical value of heatmap FIG. 6C (timepoint 120): 1.114 | TRX2 (P16728) protein, numerical value of heatmap FIG. 6C (timepoint 120): 1.493 | UL24 (P16760) protein, numerical value of heatmap FIG. 6C (timepoint 120): 1.171 | UL40 (P16780) protein, numerical value of heatmap FIG. 6C (timepoint 120): 0.9491 | UL47 (P16784) protein, numerical value of heatmap FIG. 6C (timepoint 120): 0.9878 | UL49 (P16786) protein, numerical value of heatmap FIG. 6C (timepoint 120): 0.6463 | UL69 (P16749) protein, numerical value of heatmap FIG. 6C (timepoint 120): 1.467 | UL70 (P17149) protein, numerical value of heatmap FIG. 6C (timepoint 120): 1.255 | UL83 (P06725) protein, numerical value of heatmap FIG. 6C (timepoint 120): 1.677 | UL132 (P69338) protein, numerical value of heatmap FIG. 6C (timepoint 120): 0.8677 | US15 (P09718) protein, numerical value of heatmap FIG. 6C (timepoint 120): 0.4974 | sp|P16808|IR10_HCMVA (P16808) protein, numerical value of heatmap FIG. 6C (timepoint 120): 0.9054 | sp|P16810|IR12_HCMVA (P16810) protein, numerical value of heatmap FIG. 6C (timepoint 120): 0.762 | levels of HCMV IE and E proteins (early time points): decreased levels
